The results in this text go back to patent US20240316055A1, “METHODS FOR TREATING LEIGH SYNDROME” (DBCC Research, LLC, priority 2023, published 2024).

What all share (assay type): cell-based
For test [1], the system named is ECHS1 Fibroblast cells. Kind of test: Propionate potency screen (cell viability, DAPI nuclei count). The conditions noted are these: for concentration-dependent curves: propionate potency screen, FIG. 4; for Propionate assay hits: 10 mM propionate medium, 96 hours, 3-fold serial dilution starting at 10 uM, Z-score >2. As to the method:
The suspension was centrifuged at 200x g for 5 min. The suspension was discarded and the pellet was resuspended in the 10 mM propionate medium (DMEM+10% FBS+10 mM sodium propionate) and seeded at 750 cells/well (50 μL) into the compound wells (1 μM and 10 μM). For the positive control experiment, the cells were suspended in 10 mM propionate medium +5.5 mM glucose +0.01% DMSO and seeded at 750 cells/well (50 μL) into the blank wells. For the negative control experiment, the cells were suspended in the 10 mM propionate medium +0.01% DMSO and seeded at 750 cells/well (50 μL) into the blank wells. […] The plates were then washed 3x with 50 uL/well of PBS. The cells were stained with 25 μL/well of a solution DAPI and left at room temperature for 1 hr. The plates were then washed 3x with 50 uL/well of PBS prior to imaging. Agilent BioTek EL406 Microplate Washer Dispenser was used for the cell fixation and staining protocol. The plates were imaged using GE InCell2200 Cell Analyzer using PerkinElmer Columbus software quantification protocol. The data was analyzed using Genedata, Vortex, and Abase software. A Z-score value of >2 was used for both the Prestwick/Selleck and SPECS library (based on the negative control population) to determine hit selection.
ECHS1 Fibroblast cells were harvested at 70-80% confluent with trypsin and suspended in DMEM+10% FBS. The suspension was centrifuged at 200x g for 5 min. The suspension was discarded and the pellet was resuspended in the either the 5.5 mM galactose medium (DMEM+10% FBS+5.5 mM of galactose) or the 10 mM propionate medium (DMEM+10% FBS+10 mM sodium propionate). […] For the positive control experiment, the cells were suspended in either the 5.5 mM galactose medium or 10 mM propionate medium+5.5 mM glucose+0.01% DMSO and seeded at 750 cells/well (50 μL) into the blank wells. For the negative control experiment, the cells were suspended in the 5.5 mM galactose or 10 mM propionate medium +0.01% DMSO and seeded at 750 cells/well (50 μL) into the blank wells. […] The plates were then washed 3x with 50 μL/well of PBS. The cells were stained with 25 μL/well of a solution of DAPI and left at room temperature for 1 hr. The plates were then washed 3x with 50 μL/well of PBS prior to imaging. Agilent BioTek EL406 Microplate Washer Dispenser was used for the cell fixation and staining protocol. The plates were imaged using GE InCell2200 Cell Analyzer using PerkinElmer Columbus software quantification protocol. The data was analyzed using Genedata, Vortex, and Abase software. A Z-score value of >2 was used for both the Prestwick/Selleck and SPECS library (based on the negative control population) to determine hit selection.

The test system of test [2] is ECHS1 Fibroblast cells. The test can be described thus: Galactose potency screen (cell viability, DAPI nuclei count). The conditions noted are these: for Galactose assay hits: 5.5 mM galactose medium, 96 hours, 3-fold serial dilution starting at 10 uM, Z-score >2. As to the method: Galactose Screen: Compound library plates were obtained from Prestwick/Selleck and SPECS (7,591 compounds total, 27 compounds/plate/concentration at 1 μM and 10 μM, 384-well plates). ECHS1 Fibroblast cells were harvested at 95% confluent with trypsin and suspended in Dulbecco's Modified Eagle Medium (DMEM)+10% Fetal Bovine Serum (FBS). The suspension was centrifuged at 200x g for 5 min. The suspension was discarded and the pellet was resuspended in the 5.5 mM galactose medium (DMEM+10% FBS+5.5 mM galactose) and seeded at 750 cells/well (50 μL) into the compound wells (1 μM and 10 μM). For the positive control experiment, the cells were suspended in 5.5 mM galactose medium+5.5 mM glucose+0.01% DMSO and seeded at 750 cells/well (50 μL) into the blank wells. For the negative control experiment, the cells were suspended in the 5.5 mM galactose medium+0.01% DMSO and seeded at 750 cells/well (50 μL) into the blank wells. The seeded plates were incubated at 37° C. for 96 hours, then 15 μL/well of 16% paraformaldehyde solution was added to the plates and allowed to sit for 15 min to fix the cells. The plates were then washed 3x with 50 μL/well of phosphate-buffered saline (PBS). The cells were stained with […] of a solution of 4,6-diamidino-2-phenylindole dilactate (DAPI, Invitrogen) and left at room temperature for 1 hr. The plates were then washed 3x with 50 μL/well of PBS prior to imaging. Agilent BioTek EL406 Microplate Washer Dispenser was used for the cell fixation and staining protocol. The plates were imaged using GE InCell2200 Cell Analyzer using PerkinElmer Columbus software quantification protocol. The data was analyzed using Genedata, Vortex, and Abase software. A Z-score value of >2 was used for the Prestwick/Selleck compound library and >3 for the SPECS library (based on the negative control population) to determine hit selection.
ECHS1 Fibroblast cells were harvested at 70-80% confluent with trypsin and suspended in DMEM+10% FBS. The suspension was centrifuged at 200x g for 5 min. The suspension was discarded and the pellet was resuspended in the either the 5.5 mM galactose medium (DMEM+10% FBS+5.5 mM of galactose) or the 10 mM propionate medium (DMEM+10% FBS+10 mM sodium propionate). The cells were seeded at 750 cells/well (50 μL) into a 384-well plate containing the test compounds (3-fold serial dilution across 10 plates, starting at 10 uM). For the positive control experiment, the cells were suspended in either the 5.5 mM galactose medium or 10 mM propionate medium+5.5 mM glucose+0.01% DMSO and seeded at 750 cells/well (50 μL) into the blank wells. For the negative control experiment, the cells were suspended in the 5.5 mM galactose or 10 mM propionate medium +0.01% DMSO and seeded at 750 cells/well (50 μL) into the blank wells. The seeded plates were incubated at 37° C. for 96 hours, then 15 μL/well of 16% paraformaldehyde solution was added to the plates and allowed to sit for 15 min to fix the cells. The plates were then washed 3x with 50 μL/well of PBS. The cells were stained with 25 μL/well of a solution of DAPI and left at room temperature for 1 hr. The plates were then washed 3x with 50 μL/well of PBS prior to imaging. Agilent BioTek EL406 Microplate Washer Dispenser was used for the cell fixation and staining protocol. The plates were imaged using GE InCell2200 Cell Analyzer using PerkinElmer Columbus software quantification protocol. The data was analyzed using Genedata, Vortex, and Abase software. A Z-score value of >2 was used for both the Prestwick/Selleck and SPECS library (based on the negative control population) to determine hit selection.

In test [3] the test system is ECHS1 patient-derived fibroblasts. The test can be described thus: Mitochondrial respiration assay (Seahorse). The conditions noted are these: 48 hours; for respiration: glucose or galactose conditions, 1, 5 or 10 μM. The source says: To assess the mechanism of action of hit compounds from the screens of previous Examples, which were based on rescue of viability after metabolic challenge, Seahorse assay was used to measure mitochondrial function in response to treatment at multiple concentrations. The Seahorse assay measures the following parameters: oxygen consumption; basal respiration rate; ATP-linked respiration; maximal respiration; reserve capacity; and ATP production rate. At baseline (no treatment), the ECHS1 patient-derived fibroblasts had lower respiration rates than the control fibroblasts in glucose culturing conditions (20% reduction) and in galactose culturing conditions (30% reduction).
ECHS1 patient-derived fibroblasts and age-matched and sex-matched control fibroblasts were initially grown in standard media (DMEM+2 mM glutamine+1 mM pyruvate) containing 10 mM glucose as the energy source. Cells were seeded into specialized 96-well plates at a density of 10,000 cells per well. One day after plating, cells were treated with the test compounds at the concentrations of 0, 1, 5, or 10 μM. Half of the samples were cultured in 10 mM glucose media in addition to the test compounds. The remaining half of the sample were cultured in 10 mM galactose media, which is a metabolic challenge, in addition to the test compound. Test compounds were incubated with cells for 48 hours. According to the standard Seahorse protocol, the following stressors were added to cells in sequential order: 2 μM oligomycin; 5 μM carbonyl cyanide-4-(trifluoromethoxy)phenylhydrazone (FCCP); 9 μM FCCP; 2 μM rotenone and 2 μM antimycin A. Data were normalized to cell number per well using a Hoechst stain for cell nuclei. Two rounds of experiments were conducted. The results were consistent between the two rounds.

For `CCCCOc1c(C(=O)c2c(F)cc(C)cc2F)cnc2n[nH]cc12` [BMS-265246, (4-butoxy-2H-pyrazolo[3,4-b]pyridin-5-yl)-(2,6-difluoro-4-methylphenyl)methanone], in the test on ECHS1 Fibroblast cells [1], the concentration-dependent curves entry is given as “non-linear response”.
Still for that read-out and setting: as for `COc1ccc(-n2c(C)c([N+](=O)[O-])c3ccc(O)cc32)cc1` [ID-8, 1-(4-methoxyphenyl)-2-methyl-3-nitroindol-6-ol], the entry is “non-linear response”.
For the molecule `Cc1cccc(-c2n[nH]cc2-c2ccc3ncccc3n2)n1` [RepSox, 2-[5-(6-methylpyridin-2-yl)-1H-pyrazol-4-yl]-1,5-naphthyridine], the Galactose assay hits result with ECHS1 Fibroblast cells [2] is on record as “hits”. In addition, the Propionate assay hits entry in the test on ECHS1 Fibroblast cells [1] was “hits”. Moreover, in test [3], the respiration entry is “did not result in major changes”.
With `COc1nccc(-c2c(-c3ccc(F)cc3)ncn2[C@H]2CC[C@H](O)CC2)n1` [SB-239063, 4-[4-(4-fluorophenyl)-5-(2-methoxypyrimidin-4-yl)imidazol-1-yl]cyclohexan-1-ol], in the test with ECHS1 Fibroblast cells [2] (galactose assay, FIG. 1), the nuclei count result is listed as “concentration-dependent increase”. Further, in the test with ECHS1 Fibroblast cells [2] (galactose potency screen, FIG. 2), the concentration-dependent curves entry is given as “non-linear response”.
For `CNC(C)C(=O)NC1CCCCC2CCC(C(=O)NC(c3ccccc3)c3cn(CCCCc4ccc(CCCCn5cc(C(NC(=O)C6CCC7CCCCC(NC(=O)C(C)NC)C(=O)N76)c6ccccc6)nn5)cc4)nn3)N2C1=O` [SM-164, (3S,6S, 10aS)-N-[(S)-[1-[4-[4-[4-[4-[(S)-[[(3S,6S,10aS)-6-[[(2S)-2-(methylamino)propanoyl]amino]-5-oxo-2,3,6,7,8,9,10,10a-octahydro-1H-pyrrolo[1,2-a]azocine-3-carbonyl]amino]-phenylmethyl]triazol-1-yl]butyl]phenyl]butyl]triazol-4-yl]-phenylmethyl]-6-[(2S)-2-(methylamino)propanoyl]amino]-5-oxo-2,3,6,7,8,9,10,10a-octahydro-1H-pyrrolo[1,2-a]azocine-3-carboxamide], the concentration-dependent curves entry in the test with ECHS1 Fibroblast cells [1] is on record as “non-linear response”.
On to `Fc1ccc(-c2nc(-c3c(F)cccc3F)[nH]c2-c2ccncc2)cc1` [TA-01, 4-[2-(2,6-difluorophenyl)-4-(4-fluorophenyl)-1H-imidazol-5-yl]pyridine], for which the Galactose assay hits result in the test with ECHS1 Fibroblast cells [2] was “hits”. For the same molecule, the Propionate assay hits result in the test with ECHS1 Fibroblast cells [1] was “hits”.
Consider `CCC(=O)Nc1cccc(Oc2nc(Nc3ccc(N4CCN(C)CC4)cc3OC)ncc2Cl)c1` [WZ4003, N-[3-[5-chloro-2-[2-methoxy-4-(4-methylpiperazin-1-yl)anilino]pyrimidin-4-yl]oxyphenyl]propanamide], for which, in the test on ECHS1 Fibroblast cells [1] (propionate assay, FIG. 3), the nuclei count entry is given as “concentration-dependent increase”. Also, the concentration-dependent curves result with ECHS1 Fibroblast cells [1] was “non-linear response”.
Consider `CCOC(=O)C1=C(C)NC(C)=C(C(=O)OC)C1c1cccc(Cl)c1Cl` (stereo not shown) [felodipine, 5-O-ethyl 3-O-methyl 4-(2,3-dichlorophenyl)-2,6-dimethyl-1,4-dihydropyridine-3,5-dicarboxylate], for which, in test [3], the “ATP production from glycolysis” value is reported as “increased”; the “basal and maximal respiration” value is recorded as “decreased”; the respiration result is “did not result in major changes”.
As to `Cc1ccc(-n2nc(C(C)(C)C)cc2NC(=O)NCc2cc(F)ccc2Oc2ccc3c(cnn3CCO)c2)cc1` [pexmetinib], the Galactose assay hits result in the test on ECHS1 Fibroblast cells [2] was “hits”. In addition, in the test on ECHS1 Fibroblast cells [1], the Propionate assay hits entry is given as “hits” and the concentration-dependent curves entry is “non-linear response”. For the same molecule, in test [3] (1 μM, both galactose and glucose cultured plates), the “increase in cell number per well” value amounted to 14%. In test [3] (most pronounced in the 1-5 μM range), the “total ATP production” value is “some recovery”. In test [3] (galactose-treated cells), the maximal respiration entry is recorded as “less pronounced”. Besides, the maximal respiration entry in test [3] (glucose-treated cells) was “increased to similar levels to the control cells”.
